Assay results as given in publication PMC12347391, “Sulforaphane-Rich Broccoli Sprout Extract Promotes Hair Regrowth in an Androgenetic Alopecia Mouse Model via Enhanced Dihydrotestosterone Metabolism” (International Journal of Molecular Sciences, 2025).
Where two headings read alike, the source gives them in different places.

Experiments:
[1] = after 5 weeks, cited from earlier work
[2] = tested on: CCD-986sk dermal fibroblasts; conditions: human, 24 h
HDP cells [3] = assay: In vitro scratch wound recovery assay; format: cell-based, human
Description: No. BA-045855; Sartorius AG, […], Germany). […] Sartorius AG), following the manufacturer's instructions. Detached cells were removed by washing twice with PBS (pH 7.4). […] All treatments were performed in triplicate, including a vehicle control. […] Wound closure was quantified using the Incucyte® Scratch Wound Analysis Software Module, which calculates relative wound density (%) by comparing cell density within the wound area to that of the surrounding monolayer, providing an objective measure of cell migration and proliferation over time.

[4] = in humans; cited from earlier work
HaCaT keratinocytes = conditions: human, 24 h
[5] = pH 1.2 (mimics gastric fluid), within 1 h; cited from earlier work
in vivo = conditions: Sprague-Dawley, rat, plasma, rats; for AUC(0-inf): read-out: AUCinf of SFN; for AUC(0-t): read-out: AUClast of SFN; for half-life: read-out: T1/2 of SFN (converted)
Description: To evaluate absolute oral bioavailability, an intravenous (IV) bolus dose of SFN (2 mg/kg, dissolved in normal saline, 200 µL) was administered via a cannulated femoral vein. Blood samples (300 µL) were collected from the femoral artery at predetermined time points: 0.17, 0.5, 1, 1.5, 2, 4, 8, and 12 h post-IV dosing, and 0.17, 0.5, 1, 2, 4, 6, 8, and 12 h post-oral dosing. Samples were immediately centrifuged at 13,000× g for 5 min at 4 °C to separate plasma, which was stored at −80 °C until further analysis.
The plasma concentrations of SFN were determined using liquid chromatography–tandem mass spectrometry (LC–MS/MS) following protein precipitation and solid-phase extraction. Briefly, 180 µL of plasma was spiked with 10 µL of SFN working solution (0.2–20 µg/mL) and 10 µL of internal standard (IS), phenethyl isothiocyanate (PHE, 5 µg/mL in acetonitrile). Proteins were precipitated by adding 200 µL of a solvent mixture consisting of 25% acetonitrile, 25% water, and 50% ethanol, followed by centrifugation at 18,340× g for 5 min at 4 °C. The resulting 400 µL supernatant was subjected to SPE using Oasis® HLB 96-well µElution plates (2 mg sorbent per well, 30 µm particle size; Waters Corporation, Milford, MA, USA), preconditioned with 200 µL each of methanol and water. After sample loading, the wells were washed sequentially with 200 µL of water and 50% aqueous methanol, and analytes were eluted with 400 µL of acetonitrile (2 × 200 µL).
Chromatographic separation was achieved on an ACQUITY UPLC system (Waters Corporation) using a BEH C18 column (50 × 2.1 mm, 1.7 µm). The mobile phase consisted of 10 mM ammonium acetate in water (30%, solvent A) and 0.1% formic acid in acetonitrile (70%, solvent B), delivered at a flow rate of 0.6 mL/min. The column temperature was maintained at 50 °C, and the injection volume was 10 µL.
Detection was performed using a Xevo TQ-S triple quadrupole mass spectrometer (Waters Corporation) equipped with an electrospray ionization source in the positive-ion mode. Multiple reaction monitoring (MRM) transitions were set at m/z 178.0 → 114.0 for SFN (cone voltage: 24 V; collision energy: 30 eV) and m/z 164.0 → 130.0 for PHE (cone voltage: 23 V; collision energy: 22 eV). The instrument settings included a capillary voltage of 3.0 kV, source temperature of 120 °C, desolvation temperature of 500 °C, desolvation gas (nitrogen) flow of 800 L/h, and cone gas (nitrogen) flow of 50 L/h. Argon was used as the collision gas. All the MRM parameters were optimized using the software IntelliStart^TM (Waters Corporation).
The calibration curve for SFN was linear over the range of 0.5–1000 ng/mL, with a lower limit of detection (LOD) of 0.5 ng/mL. The overall recovery of SFN using the described extraction method was 90 ± 3%, when compared to the direct analysis of the standard diluted in methanol.

HDP cells [6] = assay: Boyden chamber migration assay; format: cell-based, human; conditions: 24 h, BSE based on SFN equivalence
Description: To evaluate the migratory ability of HDP cells, a Boyden chamber assay was performed. HDP cells were serum-starved for 24 h in a medium containing 0.5% (v/v) FCS. […] The lower chambers were filled with 600 µL of HDP medium supplemented with 4% FCS, 4% bovine pituitary extract, 1 ng/L recombinant human fibroblast growth factor, and 5 µg/L recombinant human insulin. After a 24 h incubation period to allow for migration, cells were fixed with 4% paraformaldehyde (BL539A, Biosharp, Hefei, Anhui, China) for 15 min and stained using Crystal Violet Staining Solution (C0121, Beyotime, Shanghai, China) for 10 min. Non-migrated cells on the upper side of the insert membrane were carefully removed using a cotton swab. To quantify migrated cells, the basal chambers were filled with 500 µL of calcein-AM-based cell dissociation solution. Cells were incubated for 1 h at 37 °C, and the fluorescence of the dissociated calcein-AM was measured using a microplate reader at an excitation wavelength of 485 nm and an emission wavelength of 520 nm.

HDP cells [7] = assay: In vitro cell proliferation assay (WST-1); format: cell-based, human; conditions: between 0.5 and 5 µg/mL
[8] = in water at 25 °C; cited from earlier work

C[S+]([O-])CCCCN=C=S (stereo not drawn) [SFN, Sulforaphane]
residual SFN content ([1]; stored at 4 °C): 95.18 ± 0.20% | residual SFN content ([1]; stored at 26 °C): 78.45 ± 0.28% | residual SFN content ([1]; stored at −20 °C): 96.56 ± 0.15% | concentration at which proliferation decreased (dose-dependent cytotoxicity) [2]: ≥ 5000 ng/mL | scratch wound closure (HDP cells [3]; 1 µg/mL, 16 h): 71.5% | scratch wound closure (HDP cells [3]; 1 µg/mL, 20 h): 74.9% | scratch wound closure (HDP cells [3]; 1 µg/mL, 24 h): 94.8% | scratch wound closure (HDP cells [3]; 25 µg/mL, 16 h): significant cell detachment and reduced recovery | scratch wound closure (HDP cells [3]; 25 µg/mL, 20 h): remaining below the control | biological half-life [4]: approximately 2.2 h | concentration above which cytotoxic effects (decreased cell viability) were seen (HaCaT keratinocytes): above 10 µg/mL | fraction degraded [5]: ~90% | Cmax (in vivo; SFN IV 2 mg/kg): 339 ± 50 ng/mL | AUC(0-inf) (in vivo; SFN IV 2 mg/kg): 421 ± 67 ng·h/mL | AUC(0-t) (in vivo; SFN IV 2 mg/kg): 403 ± 52 ng·h/mL | half-life (in vivo; SFN IV 2 mg/kg): 7 ± 3 h | Cmax (in vivo; SFN oral 5 mg/kg): 155 ± 17 ng/mL | Tmax (in vivo; SFN oral 5 mg/kg): 2 h | bioavailability (in vivo; SFN oral 5 mg/kg, vs SFN IV): 87 ± 5% | AUC(0-inf) (in vivo; SFN oral 5 mg/kg): 934 ± 41 ng·h/mL | AUC(0-t) (in vivo; SFN oral 5 mg/kg): 874 ± 46 ng·h/mL | half-life (in vivo; SFN oral 5 mg/kg): 5 h | relative HDP cell migration (untreated control = 100%) (HDP cells [6]; 0.1 µg/mL): 141% | relative HDP cell migration (untreated control = 100%) (HDP cells [6]; 1 µg/mL): 150% | relative HDP cell migration (untreated control = 100%) (HDP cells [6]; 25 µg/mL): 16.7% | relative cell proliferation (HDP cells [7]): approximately 200% | aqueous solubility [8]: ~ 1.85 mg/mL
